For experiment [1], the target named is muscarinic receptors (3H-oxotremorine-M binding). Kind of experiment: 3H-oxotremorine-M binding study. The settings on record: radioligand 3H-oxotremorine-M; read-out: inhibition constant (Ki) for binding of 3H-oxotremorine-M.
The test system of experiment [2] is m4 receptors (CHO m4 cells). Kind of experiment: cAMP formation in CHO m4 cells treated with pertussis toxin. In kind it is cell-based. The text has this: Muscarinic agonists stimulate the formation of CAMP up to 10 fold in CHO m4 cells treated with pertussisi toxin and the pharmacology is consistent with the mediation by m4 receptors. Eckols K. Soc. Neurosci Abstr., 21:2040 (1995).

The results in this text go back to patent publication US6117890A, “Method for treating bipolar disorder” (Eli Lilly and Company, priority 1998, dated 2000).

In the case of `CCCCCCOc1nsnc1C1=CCCN(C)C1` [xanomeline, 3-(4-hexyloxy-1,2,5-thiadiazol-3-yl)-1,2,5,6-tetrahydro-1-methylpyridine], the Ki in experiment [1] stood at 2 nM. Also, the “stimulation of formation of cAMP” value in experiment [2] is “efficaciously and potently stimulated the formation of cAMP”.
